How the values were obtained:
Experiment in all cases: relative viability (nuclei count vs DMSO), 5 days (fraction); higher = more cells survive
[1] = compound: Cc1ccc2nc(NCCN)c3ncc(C)n3c2c1 + Cc1nc(NC(=O)N2CCC[C@H]2C(N)=O)sc1-c1ccnc(C(C)(C)C(F)(F)F)c1 [Alpelisib] (partner 2 µM)
Summary of the method: (§1)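 Relative viability divides the nuclei count in treated wells by that in vehicle wells. Lung cancer cell lines were seeded in 1536-well plates, dosed by pin tool the next day, and fixed and stained after 5 days in one step with final 0.05% Triton X-100, 1% formaldehyde and 1 ug/ml Hoechst. Dosing was a single drug or a fixed anchor-drug dose plus five library-drug doses (not always all listed) in √10 steps, and values are medians of duplicate plates imaged at 4×.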

[2] = compound: Cc1ccc2nc(NCCN)c3ncc(C)n3c2c1 + CC(=O)c1c(C)c2cnc(Nc3ccc(N4CCNCC4)cn3)nc2n(C2CCCC2)c1=O [Palbociclib] (partner 0.5 µM)
Summary of the method: as §1

Salubrinal + Pemetrexed = compound: O=C(/C=C/c1ccccc1)NC(NC(=S)Nc1cccc2cccnc12)C(Cl)(Cl)Cl [Salubrinal] + Nc1nc2[nH]cc(CCc3ccc(C(=O)N[C@@H](CCC(=O)O)C(=O)O)cc3)c2c(=O)[nH]1 [Pemetrexed] (partner 0.2 µM)
Summary of the method: as §1

Salubrinal + Pictilisib = compound: O=C(/C=C/c1ccccc1)NC(NC(=S)Nc1cccc2cccnc12)C(Cl)(Cl)Cl [Salubrinal] + CS(=O)(=O)N1CCN(Cc2cc3nc(-c4cccc5[nH]ncc45)nc(N4CCOCC4)c3s2)CC1 [Pictilisib] (partner 1 µM)
Summary of the method: as §1

Cell Line | relative viability ([1]; first compound 0.04 µM) | relative viability ([1]; first compound 0.1265 µM) | relative viability ([1]; first compound 0.4 µM) | relative viability ([1]; first compound 1.265 µM) | relative viability ([1]; first compound 4 µM) | relative viability ([2]; first compound 0.04 µM) | relative viability ([2]; first compound 0.1265 µM) | relative viability ([2]; first compound 0.4 µM) | relative viability ([2]; first compound 1.265 µM) | relative viability ([2]; first compound 4 µM) | relative viability (Salubrinal + Pemetrexed; first compound 0.08 µM) | relative viability (Salubrinal + Pemetrexed; first compound 0.253 µM) | relative viability (Salubrinal + Pemetrexed; first compound 0.8 µM) | relative viability (Salubrinal + Pemetrexed; first compound 2.53 µM) | relative viability (Salubrinal + Pemetrexed; first compound 8 µM) | relative viability (Salubrinal + Pictilisib; first compound 0.08 µM) | relative viability (Salubrinal + Pictilisib; first compound 0.253 µM) | relative viability (Salubrinal + Pictilisib; first compound 0.8 µM) | relative viability (Salubrinal + Pictilisib; first compound 2.53 µM) | relative viability (Salubrinal + Pictilisib; first compound 8 µM)
HCC-78 | 0.338 | 0.337 | 0.288 | 0.309 | 0.308 | 0.499 | 0.475 | 0.484 | 0.437 | 0.369 | 0.928 | 0.837 | 0.971 | 0.918 | 0.899 | 0.195 | 0.0891 | 0.312 | 0.232 | 0.229
HCC-366 | 0.552 | 0.329 | 0.455 | 0.433 | 0.276 | 0.409 | 0.392 | 0.343 | 0.382 | 0.352 | 0.194 |  | 0.165 | 0.153 | 0.161 | 0.132 | 0.143 | 0.121 | 0.151 | 0.179
HCC-827 | 0.964 | 1.02 | 0.941 | 0.958 | 0.905 | 0.437 | 0.517 | 0.473 | 0.501 | 0.495 | 0.503 | 0.276 | 0.278 | 0.227 | 0.245 | 0.959 | 1.02 | 1.06 | 0.994 | 0.898
HOP-62 | 0.981 | 0.946 | 0.942 | 0.667 | 0.975 | 0.424 | 0.436 | 0.475 | 0.469 | 0.464 | 0.244 | 0.267 | 0.317 | 0.315 | 0.331 | 0.509 | 0.468 | 0.681 | 0.505 | 0.691
IA-LM | 0.762 | 0.738 | 0.682 | 0.913 | 0.804 |  |  |  |  |  |  |  |  |  |  | 0.353 | 0.279 | 0.357 | 0.219 | 0.188
LC-2-ad | 0.953 | 0.827 | 0.86 | 1 | 0.875 | 0.469 | 0.524 | 0.482 | 0.51 | 0.452 | 0.242 | 0.276 | 0.268 | 0.272 | 0.264 | 0.457 | 0.448 | 0.519 | 0.385 | 0.323
LCLC-97TM1 | 0.321 | 0.241 | 0.225 | 0.183 | 0.194 | 0.236 | 0.217 | 0.247 | 0.218 | 0.245 | 0.169 | 0.218 | 0.19 | 0.158 | 0.158 | 0.261 | 0.162 | 0.2 |  | 0.181
LCLC-103H | 0.996 | 0.938 | 0.94 | 0.884 | 0.991 | 0.463 | 0.462 | 0.428 | 0.497 | 0.488 | 0.439 | 0.539 | 0.506 | 0.461 | 0.457 | 0.591 | 0.599 | 0.743 | 0.562 | 0.535
LK-2 | 1.07 | 1.08 | 0.935 | 1.05 | 0.864 | 0.502 | 0.811 |  |  | 0.725 | 0.321 | 0.24 | 0.463 | 0.335 | 0.254 | 0.59 | 0.541 | 0.666 | 0.512 | 0.575
LOU-NH91 | 0.739 | 0.736 | 0.735 | 0.674 | 0.696 | 0.551 | 0.509 | 0.52 | 0.542 | 0.464 | 0.708 | 0.368 | 0.5 | 0.343 | 0.371 | 0.541 | 0.502 | 0.576 | 0.479 | 0.53
LU99A | 0.59 | 0.539 | 0.576 | 0.609 | 0.464 | 0.468 | 0.447 | 0.434 | 0.456 | 0.41 | 0.176 | 0.205 | 0.265 | 0.265 | 0.185 | 0.29 | 0.35 | 0.356 | 0.318 | 0.362
NCI-H522 |  |  |  |  |  | 0.83 | 1.17 | 1.01 | 1.04 | 0.87 | 1.24 | 0.933 | 1.09 | 1.06 | 1.07 |  |  |  |  | 
NCI-H596 | 0.56 | 0.46 | 0.446 | 0.491 | 0.452 |  |  |  |  |  | 0.493 | 0.518 | 0.56 | 0.509 | 0.466 | 0.421 | 0.347 | 0.437 | 0.456 | 0.401
NCI-H727 | 0.54 | 0.618 | 0.62 | 0.599 | 0.471 | 0.648 |  | 0.603 | 0.691 | 0.722 |  |  |  |  |  | 0.318 | 0.312 | 0.433 | 0.197 | 0.359
NCI-H1299 | 1.03 | 1.1 | 1.05 | 1.08 | 0.993 |  |  |  |  |  |  |  |  |  |  | 0.911 | 0.704 | 0.874 | 0.698 | 0.66
NCI-H1563 | 0.902 | 0.962 | 1.07 | 1.13 | 0.905 |  |  |  |  |  | 0.671 | 0.761 | 0.907 | 0.784 | 0.798 | 0.665 | 0.586 | 0.639 | 0.623 | 0.591
NCI-H1648 |  |  |  |  |  | 0.272 | 0.27 | 0.237 | 0.25 | 0.282 | 0.843 | 0.637 | 0.759 | 0.705 | 0.584 |  |  |  |  | 
NCI-H1650 |  |  |  |  |  | 0.303 | 0.375 | 0.324 | 0.349 | 0.226 | 0.354 | 0.3 | 0.398 | 0.383 | 0.376 | 0.536 | 0.491 | 0.635 | 0.581 | 0.536
NCI-H1703 | 0.472 | 0.36 | 0.275 | 0.388 | 0.348 |  |  |  |  |  |  |  |  |  |  | 0.216 | 0.246 | 0.238 | 0.259 | 0.264
NCI-H2342 |  |  |  |  |  | 0.626 | 0.552 | 0.479 | 0.532 | 0.531 | 0.722 | 0.772 | 0.937 | 0.758 | 0.826 |  |  |  |  | 
SW 900 |  |  |  |  |  |  | 0.522 | 0.587 | 0.464 | 0.589 | 0.508 | 0.423 | 0.505 | 0.485 | 0.468 |  |  |  |  | 

Source: the supplement of paper PMC10307832
